Data taken from patent publication US20120190751A1, “COMPOUNDS FOR TREATMENTS OF INFLAMMATION” (ANA-MAR AB, priority 2009, published 2012).

Assays:
5HT2B receptor = 5HT2B receptor (Homo sapiens, UniProt P41595); test: Radio-ligand binding assay 5-HT2B
Procedure: (§1) Determination of binding affinities for various 5-HT receptors was performed by radio-ligand binding assays. Briefly, tissue or cells expressing the receptor of interest were suspended in incubation buffer and radio-ligands and 10 μM N-(2-chloro-3,4-dimethoxybenzylidene-amino)guanidine were added. After incubation, separation of bound and free radio-ligand was done by multiple washings with buffer.
(§2) The results were presented as the percent inhibition of specific binding. The IC50 values were determined by a non-linear least square regression analysis using MathIQ™ (ID Business Solution Ltd., UK). The inhibition constants (Ki) were calculated using the equation of Cheng and Prusoff (Cheng Y, Prusoff W H, Biochem. Pharmacol. 22:3099-3108, 1973) using the observed IC50 of the tested compound, the concentration of radioligand employed in the assay and the historical values for the KD of the ligand.

5-HT1D receptor = 5-HT1D receptor (Homo sapiens, UniProt P28221); test: Radio-ligand binding assay 5-HT1D; conditions: 10 μM compound; [3H]-5-CT 2 nM; human cortex
5-HT1D receptor, sequence (P28221 whole entry): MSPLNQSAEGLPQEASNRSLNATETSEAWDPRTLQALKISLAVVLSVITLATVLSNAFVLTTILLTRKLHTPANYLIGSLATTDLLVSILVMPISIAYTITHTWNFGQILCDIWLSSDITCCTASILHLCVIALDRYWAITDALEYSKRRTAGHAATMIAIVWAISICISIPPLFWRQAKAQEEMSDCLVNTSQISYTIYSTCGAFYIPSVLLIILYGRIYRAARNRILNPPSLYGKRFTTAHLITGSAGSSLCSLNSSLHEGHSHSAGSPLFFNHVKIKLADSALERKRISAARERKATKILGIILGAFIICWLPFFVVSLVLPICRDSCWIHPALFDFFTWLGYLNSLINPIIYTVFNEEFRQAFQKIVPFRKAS
Procedure: as §1, §2

formalin-induced pain = test: Formalin test, inflammatory pain model; format: in vivo, rat; conditions: 30 mg/kg orally 60 min before formalin
From the text: Inflammatory pain is associated with tissue damage and the resulting inflammatory process is related to conditions such as arthritis and many autoimmune disease states. The formalin test in rats is a widely used tool when studying inflammatory pain in animals (Dubuisson, D., and Dennis, S. G. (1977), Pain 4:161-174; Wheeler-Aceto, H., et al. (1990), Pain 40:229-238). This model allows the study of two different types of pain that appears in two separate phases: phase 1 which is a direct stimulation of the nerve by the formalin and thus resembles the acute pain, followed by phase 2 which is an inflammatory-reaction induced pain similar to the pain in, e.g., arthritis. […]
In accordance with the literature (Sufka K J, et al., Eur J Pain (1998), 2(4):351-8; Maione S, et al., Br. J. Pharmacol. 2007; 150:766-781), nociceptive response was monitored in consecutive 5-min periods for 60 min following formalin injection. In particular, nociceptive responses were recorded by measuring the cumulative time of lifting, licking, shaking and flinching of the injected paw per unit time (5 minutes). The nociceptive response was measured both as every 5 minutes and as total time of the first phase (0-15 min) and the second phase (15-60 min). […]

[1] = system: antigen-induced arthritis; test: Antigen-induced arthritis (AIA) in the rat, knee-joint swelling; format: in vivo
From the text: Antigen-Induced Arthritis (AIA) is a Well-Documented Animal Experimental Model of human arthritic disease (Dumonde, D. C. and Glynn, L. E. (1962), Br. J. Exp. Pathol. 43:373-383). In this model, inflammation is induced by immunization followed by an intra-articular (knee-joint) challenge with the antigen. This causes an increase in knee diameter due to the formation of a pannus, i.e. hyperproliferative synovial tissue, which spreads over the articular cartilage into the bone, leading to erosion and destruction of the joint tissue (Carpenter, T. A. et al. (1994), Skeletal Radiol. 23:429-437).
AIA was applied for a short-term in vivo evaluation of our test compounds, with treatment during 4 days.
Female Dark Agouti rats were sensitized subcutaneously at the tail root with 1 mg mBSA (Sigma A1009) dissolved in 50 μl saline and emulsified in 50 μl Freund's complete adjuvant (Sigma F5881). Eleven days later the rats were challenged (unilateral) with an intra-articular (i.a.) injection of 75 μg mBSA dissolved in 50 μl saline. The procedures were carried out under a brief Isoflurane anaesthesia. Animals were treated once or twice daily with oral administration of N-(2-chloro-3,4-dimethoxybenzylideneamino)guanidine in saline. […] The knee-joint swelling was measured daily with an odimeter/calliper; the body weight was recorded before arthritis induction and at the end of the experiment. […]

5-HT2A receptor = 5-HT2A receptor (Homo sapiens, UniProt P28223); test: Radio-ligand binding assay 5-HT2A; conditions: 10 μM compound; [3H]-Ketanserin 2 nM; human cortex
5-HT2A receptor, sequence (P28223 whole entry): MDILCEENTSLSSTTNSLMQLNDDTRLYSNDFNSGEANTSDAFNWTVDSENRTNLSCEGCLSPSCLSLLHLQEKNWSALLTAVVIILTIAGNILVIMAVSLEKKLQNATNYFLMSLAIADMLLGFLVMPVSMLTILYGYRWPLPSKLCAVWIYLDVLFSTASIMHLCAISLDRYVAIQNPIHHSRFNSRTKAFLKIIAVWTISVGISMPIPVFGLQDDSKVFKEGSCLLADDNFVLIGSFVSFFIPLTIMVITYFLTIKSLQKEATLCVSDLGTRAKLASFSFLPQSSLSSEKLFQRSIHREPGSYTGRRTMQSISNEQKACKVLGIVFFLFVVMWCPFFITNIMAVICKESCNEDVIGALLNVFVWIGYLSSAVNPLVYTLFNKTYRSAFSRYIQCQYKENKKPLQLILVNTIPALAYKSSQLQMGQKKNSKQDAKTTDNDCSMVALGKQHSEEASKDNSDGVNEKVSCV
Procedure: as §1, §2

5-HT1A receptor = biological target: T1, 5-HT1A receptor (Homo sapiens, UniProt P08908); test: Radio-ligand binding assay 5-HT1A; conditions: 10 μM compound; [3H]-8-OH-DPAT 0.5 nM; human rec. HEK293 cells
T1 sequence (P08908 1-422): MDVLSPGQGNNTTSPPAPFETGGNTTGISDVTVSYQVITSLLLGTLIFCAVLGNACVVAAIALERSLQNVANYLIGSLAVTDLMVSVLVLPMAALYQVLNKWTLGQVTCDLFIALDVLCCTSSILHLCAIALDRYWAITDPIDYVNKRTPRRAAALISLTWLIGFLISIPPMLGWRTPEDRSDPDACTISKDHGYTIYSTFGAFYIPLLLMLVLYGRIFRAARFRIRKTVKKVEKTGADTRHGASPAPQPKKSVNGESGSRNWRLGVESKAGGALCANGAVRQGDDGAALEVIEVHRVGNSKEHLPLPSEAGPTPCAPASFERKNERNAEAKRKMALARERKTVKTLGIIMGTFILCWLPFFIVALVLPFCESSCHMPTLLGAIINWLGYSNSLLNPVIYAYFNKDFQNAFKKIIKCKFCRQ
Procedure: as §1, §2

5-HT6 receptor = 5-HT6 receptor (Homo sapiens, UniProt P50406); test: Radio-ligand binding assay 5-HT6; conditions: 10 μM compound; [3H] LSD 1.5 nM; human rec. HEK293 cells
5-HT6 receptor, sequence (P50406 whole entry): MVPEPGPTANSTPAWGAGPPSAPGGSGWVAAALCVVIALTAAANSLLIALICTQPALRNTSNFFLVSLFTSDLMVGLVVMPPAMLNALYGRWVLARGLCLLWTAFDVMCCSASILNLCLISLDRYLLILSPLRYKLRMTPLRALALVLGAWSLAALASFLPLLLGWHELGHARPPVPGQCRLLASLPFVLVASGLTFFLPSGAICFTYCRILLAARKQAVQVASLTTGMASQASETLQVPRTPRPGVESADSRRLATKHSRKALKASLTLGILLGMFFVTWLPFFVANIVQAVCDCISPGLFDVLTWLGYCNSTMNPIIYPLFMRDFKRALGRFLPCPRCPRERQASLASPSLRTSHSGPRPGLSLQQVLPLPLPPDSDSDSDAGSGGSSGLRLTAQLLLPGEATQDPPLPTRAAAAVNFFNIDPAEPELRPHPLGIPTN
Procedure: as §1, §2

5HT2B receptor, sequence (P41595 whole entry): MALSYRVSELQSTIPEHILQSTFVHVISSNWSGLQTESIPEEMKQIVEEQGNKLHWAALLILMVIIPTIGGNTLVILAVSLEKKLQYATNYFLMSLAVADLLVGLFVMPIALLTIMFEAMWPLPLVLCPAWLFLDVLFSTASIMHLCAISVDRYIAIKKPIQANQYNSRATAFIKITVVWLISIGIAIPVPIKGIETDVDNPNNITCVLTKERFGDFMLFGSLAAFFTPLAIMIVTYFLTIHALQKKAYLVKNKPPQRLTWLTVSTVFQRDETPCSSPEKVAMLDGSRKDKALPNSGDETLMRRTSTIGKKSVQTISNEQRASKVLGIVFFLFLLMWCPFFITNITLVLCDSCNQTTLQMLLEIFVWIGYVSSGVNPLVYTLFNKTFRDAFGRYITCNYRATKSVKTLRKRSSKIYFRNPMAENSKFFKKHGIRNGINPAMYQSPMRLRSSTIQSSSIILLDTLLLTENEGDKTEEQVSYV

## COc1ccc(C=NNC(=N)N)c(Cl)c1OC [N-(2-chloro-3,4-dimethoxybenzylideneamino)guanidine]
5HT2B receptor; 10 μM compound, [3H] LSD 1.2 nM, human rec. CHO.K1 cells
  inhibition at 10 µM: 107%
5HT2B receptor; 10 different concentrations, Cheng-Prusoff, FIG. 1
  Ki: 263 nM
5-HT1D receptor
  inhibition at 10 µM: -5.7%
formalin-induced pain
  nociceptive response, first phase (0-15 min): without significantly influencing
formalin-induced pain; FIG. 6
  nociceptive response, phase 2 (15-60 min), inflammatory pain: significantly reduced the inflammatory pain response
[1]; administration started one day after disease induction
  effect in AIA at administration one day after disease induction: therapeutic effect
[1]; oral, 1-10 mg/kg once or twice daily for 4 days from day of challenge, FIG. 5
  knee-joint swelling in AIA: reproducibly reduce joint swelling
5-HT2A receptor
  inhibition at 10 µM: 45%
5-HT1A receptor
  inhibition at 10 µM: 17%
5-HT6 receptor
  inhibition at 10 µM: 2.6%
